# Laboratory results published in paper PMC7063354, “Novel dipeptidyl peptidase‐IV and angiotensin‐I‐converting enzyme inhibitory peptides released from quinoa protein by in silico proteolysis” (Food Science & Nutrition, 2020).
# Read-outs that look alike come from different tables or passages of the source. Peptide text beside a SMILES is read from it.
# Assays:
# ACE = target: T1, ACE (Homo sapiens, UniProt P12821); assay: ACE inhibition assay (ACE kit-WST); type: biochemical; conditions: chemically synthesized peptides; mean ± SD of three replicates
# T1 construct: purchased ACE kit‐WST
# T1 sequence (P12821 30-1306, species assumed): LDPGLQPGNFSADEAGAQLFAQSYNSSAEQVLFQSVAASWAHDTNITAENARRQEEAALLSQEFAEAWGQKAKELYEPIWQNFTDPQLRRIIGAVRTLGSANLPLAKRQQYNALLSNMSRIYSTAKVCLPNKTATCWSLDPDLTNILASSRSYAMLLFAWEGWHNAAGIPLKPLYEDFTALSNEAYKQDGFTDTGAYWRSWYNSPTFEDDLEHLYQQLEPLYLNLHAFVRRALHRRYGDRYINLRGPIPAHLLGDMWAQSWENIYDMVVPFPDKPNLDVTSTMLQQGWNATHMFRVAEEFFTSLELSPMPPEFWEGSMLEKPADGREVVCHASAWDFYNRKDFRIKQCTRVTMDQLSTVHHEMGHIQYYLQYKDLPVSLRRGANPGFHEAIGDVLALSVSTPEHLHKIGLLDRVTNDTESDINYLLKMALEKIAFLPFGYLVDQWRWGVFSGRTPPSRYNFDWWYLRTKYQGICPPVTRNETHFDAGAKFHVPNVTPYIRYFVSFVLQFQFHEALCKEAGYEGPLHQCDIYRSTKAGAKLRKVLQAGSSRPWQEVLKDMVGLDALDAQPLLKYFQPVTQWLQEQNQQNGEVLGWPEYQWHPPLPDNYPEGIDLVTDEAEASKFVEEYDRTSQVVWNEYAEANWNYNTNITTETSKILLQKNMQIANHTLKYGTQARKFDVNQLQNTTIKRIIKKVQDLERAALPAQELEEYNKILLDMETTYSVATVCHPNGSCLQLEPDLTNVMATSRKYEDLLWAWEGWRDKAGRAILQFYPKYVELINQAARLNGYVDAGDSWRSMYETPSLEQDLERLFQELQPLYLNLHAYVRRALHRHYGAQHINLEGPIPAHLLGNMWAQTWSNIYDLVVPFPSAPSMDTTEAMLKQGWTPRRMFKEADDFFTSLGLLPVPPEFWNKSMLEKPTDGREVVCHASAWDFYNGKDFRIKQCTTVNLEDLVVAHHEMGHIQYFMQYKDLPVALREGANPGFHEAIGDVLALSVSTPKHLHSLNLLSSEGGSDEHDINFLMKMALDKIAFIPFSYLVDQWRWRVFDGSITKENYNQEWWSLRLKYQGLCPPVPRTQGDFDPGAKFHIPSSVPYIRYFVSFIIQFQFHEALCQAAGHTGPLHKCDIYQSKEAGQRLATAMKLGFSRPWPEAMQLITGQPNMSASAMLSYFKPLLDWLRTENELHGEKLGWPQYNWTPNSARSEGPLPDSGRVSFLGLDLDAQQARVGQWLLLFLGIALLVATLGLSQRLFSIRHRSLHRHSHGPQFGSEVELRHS
# Description: The ACE inhibition assay was carried out with the ACE inhibitory assay kit (ACE kit‐WST). Absorbance at 450 nm was measured using a plate reader (SpectraMax plus, Molecular devices), and the IC50 value reported for each sample was the mean value from three independent replicate assays.
# DPP-IV [1] = target: T2, DPP-IV (Homo sapiens, UniProt P27487); assay: DPP-IV inhibition assay (DPP-IV inhibitor screening assay kit, Gly-Pro-Aminomethylcoumarin substrate); type: biochemical; conditions: chemically synthesized peptides; mean ± SD of three replicates
# T2 construct: purchased Abnova KA1311
# T2 sequence (P27487 whole entry): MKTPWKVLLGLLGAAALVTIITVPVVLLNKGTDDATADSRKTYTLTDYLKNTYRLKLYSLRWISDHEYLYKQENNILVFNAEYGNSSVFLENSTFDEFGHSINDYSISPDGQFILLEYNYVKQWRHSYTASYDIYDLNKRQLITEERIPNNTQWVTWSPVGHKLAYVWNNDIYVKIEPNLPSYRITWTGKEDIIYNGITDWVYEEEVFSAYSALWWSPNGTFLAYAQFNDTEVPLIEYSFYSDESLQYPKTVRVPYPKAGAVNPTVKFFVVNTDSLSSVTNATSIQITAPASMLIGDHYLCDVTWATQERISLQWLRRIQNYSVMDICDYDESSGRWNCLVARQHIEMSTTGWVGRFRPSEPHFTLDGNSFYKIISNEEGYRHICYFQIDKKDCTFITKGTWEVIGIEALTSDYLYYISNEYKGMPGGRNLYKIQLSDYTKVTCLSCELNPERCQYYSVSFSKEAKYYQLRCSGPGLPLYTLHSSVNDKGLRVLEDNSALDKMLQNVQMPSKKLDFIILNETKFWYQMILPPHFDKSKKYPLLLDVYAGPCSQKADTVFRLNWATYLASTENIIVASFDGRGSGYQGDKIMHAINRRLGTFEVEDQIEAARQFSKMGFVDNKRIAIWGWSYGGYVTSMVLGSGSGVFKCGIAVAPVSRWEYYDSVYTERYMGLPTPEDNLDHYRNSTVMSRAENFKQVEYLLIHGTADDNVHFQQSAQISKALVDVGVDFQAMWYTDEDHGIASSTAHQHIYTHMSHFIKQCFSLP
# Description: The DPP‐IV inhibition assay was determined using DPP‐IV inhibitor screening assay kit (KA1311, Abnova). Briefly, peptide samples (10 μl), dispersed in assay buffer (20 mM Tris‐HCl containing 100 mM NaCl and 1 mM EDTA, pH 8.0) at various concentrations, were mixed with assay buffer and DPP‐IV in a 96‐well plate. Then, substrate solution (Gly‐Pro‐Aminomethylcoumarin) was added to initiate the reactions. The mixture was incubated at 37°C for 30 min, and the fluorescence was measured using a plate reader (Synergy MX, Bio Tek) at an excitation wavelength of 350 nm and an emission wavelength of 450 nm. The concentration of the DPP‐IV inhibitor required to inhibit 50% of DPP‐IV activity under the above assay conditions was defined as the IC50, which was the mean value from three independent replicate assays.
# DPP-IV [2] = target: T2, DPP-IV; parameters: method as in Vilcacundo et al., 2017; conditions: peptide released from quinoa protein by pepsin-pancreatin digestion; ref Vilcacundo et al., 2017; read-out: IC50 DPP-IV inhibitory activity; cited from earlier work
Compound,IC50 (ACE) [µM],IC50 (DPP-IV [1]) [µM],IC50 (DPP-IV [2]) [µM]
CSCC[C@H](NC(=O)[C@@H](N)CC(N)=O)C(=O)N[C@@H](Cc1ccccc1)C(=O)O [NMF] (H-Asn-Met-Phe-OH),152,127,
IQAEGGLT,,,268
N[C@@H](Cc1cnc[nH]1)C(=O)N1CCC[C@H]1C(=O)N[C@@H](Cc1ccccc1)C(=O)O [HPF] (H-His-Pro-Phe-OH),100,34.3,
CSCC[C@H](N)C(=O)N[C@@H](CS)C(=O)NCC(=O)O [MCG] (H-Met-Cys-Gly-OH),20.9,149,
CSCC[C@H](N)C(=O)N[C@@H](C)C(=O)N[C@@H](Cc1ccccc1)C(=O)O [MAF] (H-Met-Ala-Phe-OH),152,338,
